Experimental data from the METLIN SMRT retention time set (Domingo-Almenara et al. 2019).

Experiment: gradient 5% acetonitrile 3 min, to 50% in 2 min, to 85% in 15 min, held 3 min, 100 µL/min
Settings: column: Zorbax Extend-C18 2.1 x 50 mm; eluents: water / acetonitrile, 0.1% formic acid
Method in brief: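 The system's dead and dwell volumes were 40 μL and 900 μL, with a Zorbax Extend-C18 column (2.1 × 50 mm, 1.8 μm) run at 100 μL/min in water and acetonitrile containing 0.1% formic acid each. Pure standards were analyzed in mixtures of ~100 molecules by HPLC–quadrupole time-of-flight mass spectrometry in positive and negative ionization mode. Retention time was assigned from computationally picked, manually inspected adduct peaks.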

Structure (SMILES) | RP-LC retention time [s]
Cc1nc(-c2csc(S(=O)(=O)N3CCN(c4ccccc4Cl)CC3)c2)sc1C | 1320
O=C(CN1CCC2(CC1)N=C(c1ccc(Br)cc1)C(=O)N2)Nc1ccc(F)cc1 | 700
O=C1CC2(CCN(C(=O)C3CC(=O)N(c4ccc(Cl)cc4)C3)CC2)Oc2ccccc21 (stereo not given) | 831
Cc1[nH]c(C)c(S(=O)(=O)N2CCC(C(=O)NC3CCCC3)CC2)c1C(=O)N1CCCC1 | 659
C=CCN1C(=O)COc2ccc(-c3nc(NC(=O)CC)sc3C)cc21 | 846
CCN(CC)C(=O)C1CCCN1S(=O)(=O)c1cc2c(cc1C)NC(=O)C(C)O2 (stereo not given) | 714
CNC(=O)c1ccsc1NC(=O)CN1C(=O)c2ccccc2C1=O | 701
Cc1cccc(CNC(=O)C2(C)Oc3cccnc3NC2=O)c1 (stereo not given) | 704
NC(=O)C1CCN(c2ncnc(N)c2[N+](=O)[O-])CC1 | 512
Clc1ccc(C(Cn2ccnc2)OCc2csc3c(Cl)cccc23)c(Cl)c1 (stereo not given) | 974
COc1ccc(-n2c(CN3CCN(C(=O)NC(C)(C)C)CC3)nc3cccnc32)cc1 | 640
O=C1COc2cc(S(=O)(=O)N3CCC(C(=O)N4CCc5ccccc54)CC3)c(Cl)cc2N1 | 844
COc1ncc(C(=O)NCc2ccc(F)c(Cl)c2)cn1 | 756
Cc1ccc(-c2nc(NC(=O)c3cc(C)on3)sc2C)cc1 | 1090
CC(C)CCC(=O)N1CCC2(CC1)CC(C)(O)CCO2 (stereo not given) | 698
CC1=C(c2ccc(F)cc2)S(=O)(=O)N=C1N1CCCN(C(=O)C2CC2)CC1 | 734
COCCNC(=O)C1CCCN(C(=O)c2[nH]c(C)cc2C)C1 (stereo not given) | 644
Cn1c(N2CCN(C(=O)c3c(F)cccc3F)CC2)cc(=O)n(C)c1=O | 648
COc1cccc(/C=C2\CCc3ccccc3C2=O)c1 | 1200
O=C(c1ccccc1)N1C[C@H]2CNC(=O)[C@]23CCCC[C@@H]13 | 662
CC(C)CCNC(=O)C1CCN(S(=O)(=O)c2ccc3c(c2)NC(=O)CO3)CC1 | 744

Structure (SMILES) | RP-LC retention time [s]
Cc1cc(C)cc(C(=O)N2CCCC(COc3ccc(C(=O)NC(C)C)cc3)C2)c1 (stereo not given) | 931
CC1CCCCN1CCNC(=O)C1CCCN(c2cnc3nccnc3c2)C1 (stereo not given) | 570
O=S(=O)(Cc1ccccc1)N1CCC2(CCCCO2)CC1 | 868
CCc1ccc(N2C(=O)C3N=NN(c4ccc(Br)c(C)c4)C3C2=O)cc1 (stereo not given) | 1190
Cc1ccc(S(=O)(=O)N2CCCC(c3nnc(CC(C)(C)C)o3)C2)cc1C (stereo not given) | 1030
Cc1cc(=O)n(CC(=O)Nc2ccc(F)cc2Cl)c(N2CCOCC2)n1 | 672
O=C(NCCO)C(=O)NCC1(c2ccccc2)CCCC1 | 715
Cn1c(SCC(=O)N2CCCC2)nnc1-c1ccc2c(c1)OCCCO2 | 661
CCOC(=O)c1c(C)[nH]c(C(=O)N2CCCC(C(=O)NCc3ccc(F)cc3)C2)c1C (stereo not given) | 803
O=c1c2sccc2n(Cc2nc(-c3ccc(F)c(Cl)c3)no2)c(=O)n1-c1ccc(F)cc1 | 1090
CCc1nnc2c(=O)n(CC(=O)NCc3ccc(F)cc3)c3cccnc3n12 | 698
Cc1cc(C)n(-c2cc(NCc3ccccn3)ncn2)n1 | 600
Cc1ccc(CNC(=O)N2CCN(c3ncccc3-c3nnc(C(C)C)o3)CC2)cc1 | 815
O=C(C1CCC1)N1CCc2c([nH]c3ccccc23)C1c1ccc(Cl)cc1 (stereo not given) | 1230
Cc1ccc(S(=O)(=O)NCCC(=O)N2CCCC2c2nc(-c3ccc(Cl)cc3)no2)cc1 (stereo not given) | 1040
Cc1sc2ccn(C)c(=O)c2c1C(=O)NCc1ccc(OC(C)C)cc1 | 833
CCCNC(=O)C1CCN(c2ccc(SCC(=O)Nc3cccc(CC)c3)nn2)CC1 | 674
CCCOc1nn(CCC)cc1C(=O)N1CCC(C(=O)OC)CC1 | 736
CCN(CC)CCCNS(=O)(=O)c1cc(-c2cc(C)no2)cs1 | 619
O=C(c1ccco1)N1CCC2(CC1)NCCc1c2[nH]c2ccccc12 | 631
CCN1CCN(CCCNC(=O)C2CCCN(C(=O)c3[nH]c(C)c(C(=O)OC(C)C)c3C)C2)CC1 (stereo not given) | 579

Structure (SMILES) | RP-LC retention time [s]
O=C(CN1C(=O)CCCc2cc(S(=O)(=O)N3CCCCC3)ccc21)NCc1ccc(F)cc1 | 862
Cc1nc(-c2csc(S(=O)(=O)N3CCC(C(=O)NC4CCCCC4)CC3)c2)no1 | 879
CCCc1cc(N2CCN(C(=O)c3cccc(C#N)c3)CC2)nc2nncn12 | 604
Cc1ccn2cc(C(=O)N3CCN(c4cccc(C)c4C)CC3)nc2c1 | 769
CCC(=O)N1CCc2c(sc3ncnc(N4CCCC4)c23)C1 | 641
COc1ccc(-c2nc(C3CC(=O)N(c4ccc(OC)c(OC)c4)C3)no2)c(OC)c1 (stereo not given) | 797
CCCCCOc1ccc(C(=O)N(Cc2ccc(C)o2)C2CCS(=O)(=O)C2)cc1 (stereo not given) | 1110
COc1ccccc1-c1noc(-c2nnn(Cc3nc(-c4ccccc4OC)oc3C)c2C)n1 | 1060
Cc1ccc(C(=O)N2CCN(c3nnc4cccc(C)n34)CC2)cc1 | 670
CCCCN1C(=O)c2ccccc2C(C(=O)NCc2cccnc2)C12CCCCC2 (stereo not given) | 678
CC(=O)Nc1ccc(OCC(=O)O)nc1 | 574
O=C(c1nnc(-c2ccc(S(=O)(=O)N3CCOCC3)cc2)o1)N1CCCCCC1 | 862
CC(=O)N1CCc2cc(N3CC(C(=O)NCc4ccc(F)cc4)CC3=O)ccc21 (stereo not given) | 740
CC(C)CNC(=O)NCCC1CCN(S(=O)(=O)c2ccccc2)CC1 | 808
Cc1cc(=O)n(Cc2ccc(F)cc2)c(N2CCSCC2)n1 | 917
O=C1CCN(C(=O)C2CCN(C(=O)c3ccco3)CC2)CCCCCCN1 | 623
O=C(c1cccn1Cc1noc(-c2ccc(Cl)cc2)n1)N1CCCCCC1 | 1160
Cc1ccnc(Nc2nc(C)c(C(=O)N3CCC(C)CC3)s2)c1 | 779
O=C(NCCc1ccccc1)C(=O)NCC1OCCc2ccccc21 (stereo not given) | 946

Now from value to compound:

RP-LC retention time [s] | Structure (SMILES)
880 | O=C(Cn1ccn2nc(-c3ccc(F)cc3)c(CO)c2c1=O)Nc1cc(F)cc(F)c1
600 | O=C(NCC1CCN(c2cc(-c3cccnc3)[nH]n2)CC1)c1ccc2c(c1)OCO2
961 | O=C(Cc1ccccc1F)N1CCc2cc(-c3ccno3)ccc21
974 | Cc1cc(F)ccc1NC(=O)C(C)C1CCN(C(=O)Nc2ccc(Cl)cc2)CC1 (stereo not given)
614 | COc1cccc(NC(=O)N2CCN(c3nc4ccccc4n3Cc3ccccc3)CC2)c1
910 | COc1ccc(NC(=O)c2cc3c(=O)n(CC(C)C)c4ccccc4n3n2)cc1OC
723 | CN(C)c1cnc(-n2cc(NC(=O)c3ccc(F)cc3)cn2)nc1
749 | Cc1ccccc1Cn1cc(-c2ccncc2)cc1C(=O)Nc1ccc2c(c1)OCO2
942 | CCn1cc(-c2nc(CC(=O)Nc3cccc(Cl)c3)cs2)c2cccnc21
1040 | Cn1cc(C(=O)Nc2cccc(Cl)c2)c2nn(-c3ccccc3)c(=O)c-2c1
748 | CC(C)CNC(=O)CCc1nc2ccccc2n(CC(=O)NCc2ccc3c(c2)OCO3)c1=O
1200 | Cc1nc2cc(-c3noc(COc4ccccc4)n3)ccc2n(C2CCCC2)c1=O
988 | COc1cccc(C(=O)N2CCc3cc(-c4csc(C)n4)ccc32)c1
1010 | Cc1ccc(-c2noc(C3CC(=O)N(c4ccccc4Cl)C3)n2)cc1 (stereo not given)
1150 | Cc1ccc(NC(=O)c2cc(C3CC3)n3nccc3n2)c(F)c1
1110 | O=C(COc1cccc(Cl)c1)Nc1nc(-c2ccccc2)cs1
996 | CS(=O)(=O)N1CCC(C(=O)Nc2ccccc2Br)Oc2ccccc21 (stereo not given)
954 | Cc1ccc(F)c(NC(=O)c2cnc(-c3ccc(F)cc3)nc2-c2ccncc2)c1
836 | Cc1nc(-c2noc(-c3ccc(F)cc3)n2)cn1CC(=O)Nc1ccccc1
853 | O=C(Cn1c(-c2cccnc2)nc2ccccc21)Nc1ccc(OC(F)(F)F)cc1
847 | CCOc1ccc(NC(=O)Cn2cccc2-c2nnc(C3CC3)o2)cc1
737 | O=C(COc1ccccc1)N1CCC(c2noc(-c3ccncc3)n2)C1 (stereo not given)
892 | O=C(NCc1ccccc1C(F)(F)F)C1CCN(c2nnc(-c3ccccc3)o2)CC1
680 | O=C(CN1CCC2(CC1)N=C(c1ccc(Cl)cc1)C(=O)N2)NCc1ccc2c(c1)OCO2
980 | CCOc1ccc(NS(=O)(=O)c2cc(C(=O)N3CCN(c4cccc(Cl)c4)CC3)n[nH]2)cc1
1140 | Cc1cccc(-c2noc(C3CCCN3C(=O)c3cccc(Cl)c3)n2)c1 (stereo not given)
588 | O=C(Cc1nc(-c2cccnc2)n[nH]1)NCCc1ccccc1
633 | COc1cc(-c2nc3ncccn3c2Nc2ccccc2)ccc1O
810 | C=CCN1C(=O)COc2ccc(-c3nc(NC(=O)c4ccncc4)sc3C)cc21
